The text below walks through data of patent publication US20090233906A1, “IMIDAZOAZEPINONE COMPOUNDS” (priority 2006, published 2009).

One test deals with human T-bet. Put plainly: HEKT-bet-luc assay (normalized). It counts as cell-based. Conditions: Homo sapiens, HEK293, 24 h, normalized HEKT-bet-luc IC50; engineered HEK cells, T-box responsive luciferase reporter, compound 24 hours; normalized to reference ER-819544; read-out: IC50. On the procedure: HEKT-bet-luc assay: This assay measures a T-bet dependent reporter (luciferase) activity in engineered HEK cells that express a human T-bet and a T-box responsive element driving luciferase reporter. HEKT-bet cells were plated at 2×10^4/well in 96-well plate and compound was added into cell culture for 24 hours. Luciferase activity was measured by adding 50 μl of Steady-Glo reagent (Promega) and samples were read in Victor V reader (PerkinElmer). The activity of compound was determined by comparing compound treated samples to non-compound treated vehicle controls. The IC50 values were calculated utilizing a maximum value corresponding to the amount of luciferase in the absence of a test compound and a minimum value corresponding to a test compound value obtained at maximum inhibition.
Determination of Normalized HEKT-bet IC50 values: Compounds were assayed in microtiter plates. Each plate included a reference compound which was ER-819544. The un-normalized IC50 value for a particular compound was divided by the IC50 value determined for the reference compound in the same microtiter plate to provide a relative potency value. The relative potency value was then multiplied by the established potency of the reference compound to provide the normalized HEKT-bet IC50 value. […] The IC50 values provided herein were obtained using this normalization method.
For orientation: In a reporter assay the amount or activity of a reporter protein is the signal.
As usually defined, the IC50 is the concentration at which inhibition is half-maximal. On to `COc1cc2c(c(OC)c1)C(C)(C)C=C1N(C2)C(=O)N(CCO)C12CCN(Cc1ccccc1)CC2` [compound 819642], for which the IC50 was determined as 365 nM.
Regarding `CCN1C(=O)N2Cc3cc(OC)cc(OC)c3C(C)(C)C=C2C12CCN(Cc1ccccc1)CC2` [compound 819640], the IC50 turned out to be 542 nM.
`COc1cc2c(c(OC)c1)C(C)(C)C=C1N(C2)C(=O)N(C)C12CCN(Cc1ccccc1)CC2` [compound 819629]: the IC50 was 840 nM.
In the case of `COc1cc2c(c(OC)c1OC)C(C)C=C1N(C2)C(=O)N(CCO)C12CCN(Cc1cc(C)cc(C)c1)CC2` (stereo not drawn) [compound 819735], the IC50 was 140 nM.
Same read-out and setting: in the case of `COc1cc(CN2CCC3(CC2)C2=CC(C)(C)c4c(cc(OC)cc4OC)CN2C(=O)N3Cc2ccc(-n3cccn3)cc2)cc(OC)c1` [compound 819663] it was 637 nM.
As to `COc1cc2c(c(OC)c1)C(C)C=C1N(C2)C(=O)N(C)C12CCN(Cc1cccc3ncccc13)CC2` (stereo not drawn) [compound 819688], the IC50 was found to be 288 nM.
With `CCN1C(=O)N2Cc3cc(OC)cc(OC)c3C(C)C=C2C12CCN(Cc1occ(C)c1C)CC2` (stereo not drawn) [compound 819771], the IC50 came out at 205 nM.
As for `COc1cccc(CN2CCC3(CC2)C2=CC(C)(C)c4c(cc(OC)cc4OC)CN2C(=O)N3Cc2ccc(-n3cccn3)cc2)c1` [compound 819650], the IC50 was 669 nM.
For `COCCN1C(=O)N2Cc3cc(OC)cc(OC)c3C(C)(C)C=C2C12CCN(Cc1cc(C)cc(C)c1)CC2` [compound 819659], the IC50 amounted to 68 nM.
Regarding `COCCN1C(=O)N2Cc3cc(OC)cc(OC)c3C(C)(C)C=C2C12CCN(Cc1cc(OC)cc(OC)c1OC)CC2` [compound 819752], the IC50 is 71 nM.
As for `COc1cc(CN2CCC3(CC2)C2=CC(C)(C)c4c(cc(OC)cc4OC)CN2C(=O)N3Cc2cccc(-n3cccc3)c2)cc(OC)c1` [compound 819590], the IC50 worked out at 514 nM.
On the same count and under the same terms, in the case of `CCN1C(=O)N2Cc3cc(OC)cc(OC)c3C(C)C=C2C12CCN(Cc1cc(C)cc(C)c1)CC2` (racemic) [compound 819597] it was 90 nM.
With `CCN1C(=O)N2Cc3cc(OC)cc(OC)c3C(C)(C)C=C2C12CCN(Cc1cccc3ncccc13)CC2` [compound 819602], the IC50 was 150 nM.
As to `CCN1C(=O)N2Cc3cc(OC)cc(OC)c3C(C)(C)C=C2C12CCN(Cc1cc(OC)cc(OC)c1)CC2` [compound 819583], the IC50 was 112 nM.
As to `CCN1C(=O)N2Cc3cc(OC)cc(OC)c3C(C)C=C2C12CCN(Cc1cc(OC)cc(OC)c1)CC2` (stereo not drawn) [compound 819582], the IC50 is 10 nM.
Regarding `CCN1C(=O)N2Cc3cc(OC)cc(OC)c3C(C)(C)C=C2C12CCN(Cc1cn(C)c3ccccc13)CC2` [compound 819606], the IC50 is 2870 nM.
As for `COCCN1C(=O)N2Cc3ccoc3C(C)(C)C=C2C12CCN(Cc1cc(OC)cc(OC)c1)CC2` [compound 819698], the IC50 came to 1980 nM.
On to `COc1cc2c(c(OC)c1)C(C)C=C1N(C2)C(=O)N(C)C12CCN(Cc1cccc3cccnc13)CC2` (stereo not drawn) [compound 819689], for which the IC50 is 169 nM.
Take `COCCN1C(=O)N2Cc3cc(OC)cc(OC)c3C(C)(C)C=C2C12CCN(Cc1ccccc1)CC2` [compound 819641]: the IC50 was 98 nM.
Same read-out and setting: then `COc1cc(CN2CCC3(CC2)C2=CC(C)(C)c4c(cc(OC)cc4OC)CN2C(=O)N3C)cc(OC)c1` [compound 819658], with 141 nM.
As to `COCCN1C(=O)N2Cc3cc(OC)cc(OC)c3C(C)C=C2C12CCN(Cc1cc(OC)cc(OC)c1)CC2` (stereo not drawn) [compound 819543], the IC50 was determined as 15 nM.
On to `COc1cccc(CN2CCC3(CC2)C2=CC(C)(C)c4c(cc(OC)cc4OC)CN2C(=O)N3C)c1` [compound 819628], for which the IC50 came out at 360 nM.
On to `COc1cc2c(c(OC)c1)C(C)C=C1N(C2)C(=O)N(CC2CC2)C12CCN(Cc1cc(C)cc(C)c1)CC2` (stereo not drawn) [compound 819991], for which the half-maximal inhibitory concentration (IC50) stood at 120 nM.
For `CCN1C(=O)N2Cc3cc(OC)cc(OC)c3C(C)(C)C=C2C12CCN(Cc1cccc3cccnc13)CC2` [compound 819604], the IC50 is 120 nM.
Regarding `CCN1C(=O)N2Cc3cc(OC)cc(OC)c3C(C)(C)C=C2C12CCN(Cc1cc(C)cc(C)c1)CC2` [compound 819607], the half-maximal inhibitory concentration (IC50) was 500 nM.
As to `CCN1C(=O)N2Cc3cc(OC)cc(OC)c3C(C)C=C2C12CCN(Cc1cccn1C)CC2` (stereo not drawn) [compound 819772], the concentration for half-maximal inhibition (IC50) worked out at 103 nM.
For the compound `CCN1C(=O)N2Cc3cc(OC)cc(OC)c3C(C)C=C2C12CCN(Cc1ccc(C)o1)CC2` (stereo not drawn) [compound 819770], the IC50 came to 267 nM.
With `CCC=C1C=C2N(Cc3cc(OC)cc(OC)c31)C(=O)N(CC)C21CCN(Cc2cc(OC)cc(OC)c2)CC1` [compound 819652], the IC50 turned out to be 270 nM.
As for `COc1cc2c(c(OC)c1)C(C)C=C1N(C2)C(=O)N(CC=C(C)C)C12CCN(Cc1cc(C)cc(C)c1)CC2` (stereo not drawn) [compound 819995], the IC50 was determined as 330 nM.
Regarding `COCCN1C(=O)N2Cc3cc(OC)ccc3C(C)(C)C=C2C12CCN(Cc1ccccc1)CC2` [compound 819613], the IC50 amounted to 1310 nM.
`COc1cc2c(c(OC)c1)C(C)(C)C=C1N(C2)C(=O)N(C)C12CCN(Cc1cccc3ccccc13)CC2` [compound 819637]: the IC50 is 734 nM.
As for `COc1cc(CN2CCC3(CC2)C2=CC(C)(C)c4c(cc(OC)cc4OC)CN2C(=O)N3CCO)c(F)c(OC)c1` [compound 819724], the IC50 amounted to 104 nM.
As for `CCN1C(=O)N2Cc3cc(OC)cc(OC)c3C(C)C=C2C12CCN(Cc1ccoc1)CC2` (stereo not drawn) [compound 819769], the IC50 was 190 nM.
`COCCN1C(=O)N2Cc3cc(OC)cc(OC)c3C(C)(C)C=C2C12CCN(Cc1cc(OC)cc(OC)c1O)CC2` [compound 819750]: the IC50 was 41 nM.
Same read-out and setting: in the case of `CCN1C(=O)N2Cc3cc(OC)cc(OC)c3C(C)C=C2C12CCN(Cc1ccco1)CC2` (stereo not drawn) [compound 819768] it was 183 nM.
As for `CCN1C(=O)N2Cc3cc(OC)cc(OC)c3C(C)C=C2C12CCN(Cc1cccc3nccnc13)CC2` (stereo not drawn) [compound 819595], the IC50 was 90 nM.
Consider `CCN1C(=O)N2Cc3cc(OC)cc(OC)c3C(C)C=C2C12CCN(Cc1cccc(OC)c1OC)CC2` (stereo not drawn) [compound 819767], for which the IC50 turned out to be 148 nM.
With `COCCN1C(=O)N2Cc3cc(OC)cc(OC)c3C(C)(C)C=C2C12CCN(Cc1cccc(OC)c1)CC2` [compound 819647], the IC50 is 64 nM.
Consider `CCN1C(=O)N2Cc3cc(OC)cc(OC)c3C(C)(C)C=C2C12CCN(Cc1ccc3nc[nH]c3c1)CC2` [compound 819777], for which the IC50 is 110 nM.
For the compound `COc1cc2c(c(OC)c1)C(C)(C)C=C1N(C2)C(=O)N(C)C12CCN(Cc1ccc3ccccc3c1)CC2` [compound 819627], the IC50 was found to be 1600 nM.
Regarding `CCN1C(=O)N2Cc3cc(OC)cc(OC)c3C(C)C=C2C12CCN(Cc1cccc3cnccc13)CC2` (stereo not drawn) [compound 819593], the IC50 stood at 140 nM.
`COCCN1C(=O)N2Cc3cc(OC)c(OC)c(OC)c3C(C)(C)C=C2C12CCN(Cc1cc(OC)cc(OC)c1)CC2` [compound 819701]: the IC50 was 21 nM.
Take `COCCN1C(=O)N2Cc3cc(F)ccc3C(C)(C)C=C2C12CCN(Cc1cc(OC)cc(OC)c1)CC2` [compound 819672]: the 50% inhibitory concentration (IC50) was 877 nM.
Take `CCN1C(=O)N2Cc3cc(OC)cc(OC)c3C(C)(C)C=C2C12CCN(Cc1cccc(OC)c1)CC2` [compound 819646]: the IC50 was determined as 184 nM.
As for `CCN1C(=O)N2Cc3cc(OC)cc(OC)c3/C=C/C=C\2C12CCN(Cc1cc(OC)cc(OC)c1)CC2` [compound 819702], the IC50 worked out at 600 nM.
Turning to `CCN1C(=O)N2Cc3cc(OC)cc(OC)c3C(C)C=C2C12CCN(Cc1cccc3cccnc13)CC2` (stereo not drawn) [compound 819594], the IC50 is 60 nM.
`COc1cc2c(c(OC)c1)C(C)(C)C=C1N(C2)C(=O)N(C)C12CCN(C/C=C/c1ccccc1)CC2` [compound 819634]: the IC50 stood at 1150 nM.
Turning to `COc1cccc(CN2CCC3(CC2)C2=CC(C)(C)c4c(cc(OC)cc4OC)CN2C(=O)N3CCO)c1` [compound 819648], the IC50 turned out to be 147 nM.
Consider `CCN1C(=O)N2Cc3cc(OC)cc(OC)c3C(C)(C)C=C2C12CCN(Cc1cccc3nccnc13)CC2` [compound 819605], for which the IC50 was found to be 260 nM.
As to `CCN1C(=O)N2Cc3cc(OC)cc(OC)c3C(C)(C)C=C2C12CCN(Cc1ccnc3ccccc13)CC2` [compound 819601], the IC50 is 260 nM.
Consider `COCCN1C(=O)N2Cc3cc(OC)cc(OC)c3C(C)(C)C=C2C12CCN(Cc1cc(OC)cc(OC)c1C)CC2` [compound 819749], for which the IC50 stood at 44 nM.
As to `COc1cccc(CN2CCC3(CC2)C2=CC(C)(C)c4c(cc(OC)cc4OC)CN2C(=O)N3Cc2ccccc2)c1` [compound 819649], the IC50 amounted to 4940 nM.
Still for that read-out and setting: in the case of `CCN1C(=O)N2Cc3cc(OC)cc(OC)c3C(C)C=C2C12CCN(Cc1cccc3ncccc13)CC2` (stereo not drawn) [compound 819592] it was 86 nM; in that of `CCN1C(=O)N2Cc3cc(OC)cc(OC)c3C(C)C=C2C12CCN(Cc1cscc1Br)CC2` (stereo not drawn) [compound 819558], 740 nM.
Consider `CCN1C(=O)N2Cc3cc(OC)c(OC)c(OC)c3C(C)C=C2C12CCN(Cc1cccc3cccnc13)CC2` (stereo not drawn) [compound 819755], for which the IC50 amounted to 53 nM.
Still for that read-out and setting: then `CCc1ccc(CN2CCC3(CC2)C2=CC(C)c4c(cc(OC)cc4OC)CN2C(=O)N3CC)s1` (stereo not drawn) [compound 819557], with 510 nM.

Staying with this test, now noted: Homo sapiens, HEKT-bet-luc assay; value used for normalization; read-out: established potency of the reference compound (IC50).
Turning to `COCCN1C(=O)N2Cc3cc(OC)cc(OC)c3C(C)(C)C=C2C12CCN(Cc1cc(OC)cc(OC)c1)CC2` [ER-819544], the IC50 turned out to be 35 nM.
